PubChem BioAssay AID248 (DTP/NCI, 2004)
Several values for one entry are separate records, joined by “and”; a condition that tells them apart may be missing. Equal entries are not always repeated. Toxic doses and inconclusive results are not listed. Square brackets hold non-standard residues; d marks the D form. Peptide text beside a SMILES is read from it. ξ: configuration not given here. ξF = NC(Cc1ccccc1)C(=O)O; ξV = CC(C)C(N)C(=O)O

Tested on: L1210 leukemia ip in BDF1 mice, survival T/C
Test: NCI In Vivo Anticancer Drug Screen. Data for tumor model L1210 Leukemia (intraperitoneal) in B6D2F1 (BDF1) mice
Details: endpoint: mean survival time, higher = longer survival
In short: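 Transplanted-tumor mice were given test agent; controls received vehicle only. Survival readings from the two groups were divided (treated over control).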

[1] = dose: 12.5 mg/kg/injection, schedule: Q01DX009 (ip), vehicle: saline
[2] = dose: 200.0 mg/kg/injection, schedule: Q04DX003 (ip), vehicle: Klucel (hydroxypropylcellulose) (HPC)
[3] = dose: 100.0 mg/kg/injection, schedule: Q04DX003 (ip), vehicle: saline
[4] = dose: 200.0 mg/kg/injection, schedule: Q04DX003 (ip), vehicle: saline
[5] = dose: 100.0 mg/kg/injection, schedule: Q01DX009 (ip), vehicle: saline
[6] = dose: 200.0 mg/kg/injection, schedule: Q01DX009 (ip), vehicle: saline
[7] = dose: 400.0 mg/kg/injection, schedule: Q01DX009 (ip), vehicle: saline
[8] = dose: 400.0 mg/kg/injection, schedule: Q04DX003 (ip), vehicle: saline

SMILES: Brc1cccc(CCOCc2ccccc2)c1
- T/C (dose: 100.0 mg/kg/injection, schedule: Q04DX002 (ip), vehicle: saline with Tween-80): 103 % of control
- T/C (dose: 200.0 mg/kg/injection, schedule: Q04DX002 (ip), vehicle: saline with Tween-80): 100 % of control
- T/C (dose: 400.0 mg/kg/injection, schedule: Q04DX002 (ip), vehicle: saline with Tween-80): 97 % of control

SMILES: CN(C)CC/C=C1\c2ccccc2Sc2ccc(C(F)(F)F)cc21
- T/C (dose: 0.78 mg/kg/injection, schedule: Q01DX009 (ip), vehicle: saline): 97 % of control
- T/C (dose: 0.78 mg/kg/injection, schedule: Q04DX003 (ip), vehicle: saline): 102 % of control
- T/C (dose: 1.56 mg/kg/injection, schedule: Q01DX009 (ip), vehicle: saline): 105 % of control
- T/C (dose: 1.56 mg/kg/injection, schedule: Q04DX003 (ip), vehicle: saline): 105 % of control
- T/C (dose: 3.12 mg/kg/injection, schedule: Q01DX009 (ip), vehicle: saline): 115 % of control
- T/C (dose: 3.12 mg/kg/injection, schedule: Q04DX003 (ip), vehicle: saline): 100 % of control
- T/C (dose: 6.0 mg/kg/injection, schedule: Q01DX Z (ip), vehicle: carboxymethylcellulose (CMC)): 111 % of control
- T/C (dose: 6.25 mg/kg/injection, schedule: Q04DX003 (ip), vehicle: saline): 107 % of control
- T/C (dose: 9.0 mg/kg/injection, schedule: Q01DX Z (ip), vehicle: carboxymethylcellulose (CMC)): 103 % of control and 108 % of control
- T/C (dose: 9.0 mg/kg/injection, schedule: Q01DX Z (ip), vehicle: other): 110 % of control
- T/C [1]: 122 % of control
- T/C (dose: 12.5 mg/kg/injection, schedule: Q04DX003 (ip), vehicle: saline): 105 % of control
- T/C (dose: 14.0 mg/kg/injection, schedule: Q01DX Z (ip), vehicle: carboxymethylcellulose (CMC)): 100 % of control and 111 % of control
- T/C (dose: 17.5 mg/kg/injection, schedule: Q01DX001 (ip), vehicle: saline): 114 % of control
- T/C (dose: 21.0 mg/kg/injection, schedule: Q01DX Z (ip), vehicle: carboxymethylcellulose (CMC)): 103 % of control
- T/C (dose: 21.0 mg/kg/injection, schedule: Q01DX Z (ip), vehicle: other): 110 % of control
- T/C (dose: 31.0 mg/kg/injection, schedule: Q01DX Z (ip), vehicle: carboxymethylcellulose (CMC)): 110 % of control
- T/C (dose: 35.0 mg/kg/injection, schedule: Q01DX001 (ip), vehicle: saline): 104 % of control
- T/C (dose: 50.0 mg/kg/injection, schedule: Q04DX003 (ip), vehicle: saline): 120 % of control
- T/C (dose: 70.0 mg/kg/injection, schedule: Q01DX001 (ip), vehicle: saline): 108 % of control
- T/C (dose: 140.0 mg/kg/injection, schedule: Q01DX001 (ip), vehicle: saline): 123 % of control

SMILES: O=C(CCCCC(=O)OCCBr)OCCBr
- T/C (dose: 20.0 mg/kg/injection, schedule: Q04DX003 (ip), vehicle: Klucel (hydroxypropylcellulose) (HPC)): 100 % of control
- T/C (dose: 40.0 mg/kg/injection, schedule: Q04DX003 (ip), vehicle: Klucel (hydroxypropylcellulose) (HPC)): 105 % of control
- T/C (dose: 80.0 mg/kg/injection, schedule: Q04DX003 (ip), vehicle: Klucel (hydroxypropylcellulose) (HPC)): 114 % of control
- T/C [2]: 102 % of control

SMILES: CCCCCCCCCCCCOP(=S)(S)OCCCCCCCCCCCC (tested in a mixture with another compound)
- T/C (dose: 25.0 mg/kg/injection, schedule: Q01DX009 (ip), vehicle: Klucel (hydroxypropylcellulose) (HPC)): 94 % of control
- T/C (dose: 25.0 mg/kg/injection, schedule: Q04DX002 (ip), vehicle: Klucel (hydroxypropylcellulose) (HPC)): 87 % of control
- T/C (dose: 50.0 mg/kg/injection, schedule: Q01DX009 (ip), vehicle: Klucel (hydroxypropylcellulose) (HPC)): 91 % of control
- T/C (dose: 50.0 mg/kg/injection, schedule: Q04DX002 (ip), vehicle: Klucel (hydroxypropylcellulose) (HPC)): 90 % of control
- T/C (dose: 100.0 mg/kg/injection, schedule: Q04DX002 (ip), vehicle: Klucel (hydroxypropylcellulose) (HPC)): 99 % of control and 100 % of control

SMILES: CCOC(=O)c1cc(C)n(-c2ccc(-c3ccc(-n4c(C)cc(C(=O)OCC)c4C)c(C)c3)cc2C)c1C
- T/C (dose: 100.0 mg/kg/injection, schedule: Q04DX003 (ip), vehicle: Klucel (hydroxypropylcellulose) (HPC)): 98 % of control
- T/C [2]: 101 % of control
- T/C (dose: 400.0 mg/kg/injection, schedule: Q04DX003 (ip), vehicle: Klucel (hydroxypropylcellulose) (HPC)): 93 % of control

SMILES: CCCCCCCCCCCCCCCCCc1cc(=O)n(-c2ccc(NC(=O)CCC(=O)OC)cc2)n1C
- T/C (dose: 12.5 mg/kg/injection, schedule: Q04DX003 (ip), vehicle: Klucel (hydroxypropylcellulose) (HPC)): 93 % of control
- T/C (dose: 50.0 mg/kg/injection, schedule: Q04DX003 (ip), vehicle: Klucel (hydroxypropylcellulose) (HPC)): 86 % of control

SMILES: C=COC(=O)N1c2ccc(C)cc2C=CC1C#N (configuration not stated)
- T/C (dose: 100.0 mg/kg/injection, schedule: Q04DX003 (ip), vehicle: gum acacia): 92 % of control
- T/C (dose: 200.0 mg/kg/injection, schedule: Q04DX003 (ip), vehicle: gum acacia): 102 % of control
- T/C (dose: 400.0 mg/kg/injection, schedule: Q04DX003 (ip), vehicle: gum acacia): 86 % of control

SMILES: CCP(c1ccccc1)c1ccccc1
- T/C (dose: 75.0 mg/kg/injection, schedule: Q01DX009 (ip), vehicle: saline sonified): 101 % of control
- T/C (dose: 100.0 mg/kg/injection, schedule: Q01DX001 (ip), vehicle: saline sonified): 92 % of control
- T/C (dose: 150.0 mg/kg/injection, schedule: Q01DX009 (ip), vehicle: saline sonified): 94 % of control
- T/C (dose: 200.0 mg/kg/injection, schedule: Q01DX001 (ip), vehicle: saline sonified): 97 % of control
- T/C (dose: 300.0 mg/kg/injection, schedule: Q01DX009 (ip), vehicle: saline sonified): 106 % of control
- T/C (dose: 400.0 mg/kg/injection, schedule: Q01DX001 (ip), vehicle: saline sonified): 103 % of control

SMILES: C[S+](C)CC(=O)c1ccccc1
- T/C [3]: 95 % of control
- T/C [4]: 104 % of control

SMILES: CN(C)c1ccc(-c2nc3ccccn3c2N)cc1
- T/C (dose: 3.13 mg/kg/injection, schedule: Q01DX009 (ip), vehicle: saline): 95 % of control
- T/C (dose: 6.25 mg/kg/injection, schedule: Q01DX009 (ip), vehicle: saline): 92 % of control and 101 % of control
- T/C [1]: 100 % of control and 114 % of control

SMILES: CC1(C(Cl)Cl)C=CC=CC1=O (configuration not stated)
- T/C (dose: 100.0 mg/kg/injection, schedule: Q01DX001 (ip), vehicle: Klucel (hydroxypropylcellulose) (HPC)): 102 % of control
- T/C (dose: 200.0 mg/kg/injection, schedule: Q01DX001 (ip), vehicle: Klucel (hydroxypropylcellulose) (HPC)): 106 % of control
- T/C (dose: 400.0 mg/kg/injection, schedule: Q01DX001 (ip), vehicle: Klucel (hydroxypropylcellulose) (HPC)): 104 % of control

SMILES: CC(C)C(NC(=O)CNC(=O)CN)C(=O)O (stereo not drawn) (H-Gly-Gly-[ξV]-OH)
- T/C [5]: 104 % of control
- T/C [3]: 106 % of control
- T/C [6]: 102 % of control
- T/C [4]: 103 % of control
- T/C [7]: 102 % of control
- T/C [8]: 106 % of control

SMILES: CCC(C)C1(C)C(=O)N(C)C(=S)N(C)C1=O (configuration not stated)
- T/C (dose: 5.0 mg/kg/injection, schedule: Q01DX001 (ip), vehicle: saline): 95 % of control
- T/C (dose: 10.0 mg/kg/injection, schedule: Q01DX001 (ip), vehicle: saline): 91 % of control
- T/C (dose: 20.0 mg/kg/injection, schedule: Q01DX001 (ip), vehicle: saline): 96 % of control
- T/C (dose: 40.0 mg/kg/injection, schedule: Q01DX001 (ip), vehicle: saline): 89 % of control

SMILES: COc1cc(O)c([N+](=O)[O-])cc1[N+](=O)[O-]
- T/C (dose: 100.0 mg/kg/injection, schedule: Q01DX001 (ip), vehicle: carboxymethylcellulose (CMC)): 96 % of control
- T/C (dose: 200.0 mg/kg/injection, schedule: Q01DX001 (ip), vehicle: carboxymethylcellulose (CMC)): 91 % of control
- T/C (dose: 400.0 mg/kg/injection, schedule: Q01DX001 (ip), vehicle: carboxymethylcellulose (CMC)): 100 % of control

SMILES: NC(Cc1ccccc1)C(=O)NCC(=O)O (configuration not stated) (H-[ξF]-Gly-OH)
- T/C [5]: 105 % of control
- T/C [3]: 98 % of control
- T/C [6]: 105 % of control
- T/C [4]: 97 % of control
- T/C [7]: 102 % of control
- T/C [8]: 97 % of control

SMILES: Cn1cnc([N+](=O)[O-])c1Sc1ncnc2c1ncn2C1OC(CO)C(O)C1O (configuration not stated)
- T/C (dose: 18.0 mg/kg/injection, schedule: Q01DX009 (ip), vehicle: saline): 100 % of control
- T/C (dose: 35.0 mg/kg/injection, schedule: Q01DX009 (ip), vehicle: saline): 108 % of control
- T/C (dose: 75.0 mg/kg/injection, schedule: Q04DX003 (ip), vehicle: Klucel (hydroxypropylcellulose) (HPC)): 121 % of control
- T/C (dose: 110.0 mg/kg/injection, schedule: Q01DX009 (ip), vehicle: saline): 152 % of control
- T/C (dose: 165.0 mg/kg/injection, schedule: Q01DX009 (ip), vehicle: saline): 150 % of control
- T/C (dose: 176.0 mg/kg/injection, schedule: Q01DX009 (ip), vehicle: other): 164 % of control
- T/C (dose: 250.0 mg/kg/injection, schedule: Q01DX009 (ip), vehicle: saline): 154 % of control
- T/C (dose: 300.0 mg/kg/injection, schedule: Q04DX003 (ip), vehicle: Klucel (hydroxypropylcellulose) (HPC)): 156 % of control
